Data: patent US7902148B2, “Use of an echinocandin antifungal agent in combination with a glycopeptide antibacterial agent” (Theravance, Inc., priority 2003, dated 2011)

Columns and labels:
C. albicans ATCC 24433 = test: Checkerboard MIC assay for FICI; format: cell-based, Candida albicans
Excerpt: (§1) The following assay was used to determine the minimum inhibitory concentration (MIC) and fractional inhibitory concentration index (FICI) for combinations of antifungal agents and antibacterial agents. This assay and methods for calculating FICI are well known in the art. See, for example, Eliopoulos, E. G. and R. Moellering, Jr. “Antimicrobial Combinations” in Antibiotics in Laboratory Medicine, edited by V. Lorian, 4th Ed., Williams & Wilkins, Baltimore, Md., pp. 330-396 (1996); Shalit et al., Antimicrobial Agents and Chemotherapy 47(4):1416-1418 (2003); or Afeltra et al., Antimicrobial Agents and Chemotherapy 46(10):3323-3326 (2002).
(§2) Using a checkerboard method, a 2-fold dilution 100× final concentration master plate was prepared using a 96-well U-shape microtiter plate and an appropriate solvent. In the “checkerboard” method, a microtiter plate is divided into “columns” in which each well in the column contains the same amount of an antifungal agent (Compound A) being diluted along the x-axis, and “rows” in which each well in the row contains the same amount of a glycopeptide antibacterial agent (Compound B) being diluted on the γ-axis. Also included is a row (or column) for Compound A or B alone. The dilutions used in the checkerboard are exponential (by powers of two). The result is that each well in the microtiter plate contains a unique concentration of the two compounds being tested.
(§3) A matrix 2× final concentration was performed by transferring 30 μL of 100× Compound A and Compound B into a 1,440 μL RPMI in deep wells (one deep well per drug combination). After mixing, 100 μL of 2× drug combinations were distributed into 96-well microtiter plates. Compound A was diluted from Column 1 starting at 1,600 μg/mL to Column 11 (1.6 μg/mL). Wells in Column 1 contained a final concentration (after inoculum was added) of 16 μg/mL of Compound A; wells in Column 2 contained a final concentration of 8 μg/mL of Compound A; wells in Column 3 contained a final concentration of 4 μg/mL of Compound A; etc. Compound A was not added to Column 12, so Column 12 contained only Compound B.
(§4) Compound B was diluted from row A starting at 6,400 μg/mL down to row G (100 μg/mL). Wells in Row A contained a final concentration of 64 μg/mL of Compound B; Row B contained a final concentration of 32 μg/mL of Compound B; Row C contained a final concentration of 16 μg/mL of Compound B; etc. Compound B was not added to Row H, so Row H only contained Compound A.
(§5) In most cases, MIC of the glycopeptide antibacterial compound alone was >64 μg/mL. In order to get an accurate measurement, a standard MIC assay using NCCLS protocols was performed with an extended concentration range of from 256 μg/mL to 0.25 μg/mL. […]

[1] = test system: C. parapsilosis ATCC 22019; test: Checkerboard MIC assay for FICI; format: cell-based, Candida parapsilosis
Excerpt: as §1, §2, §3, §4, §5

C. tropicalis ATCC 750 = test: Checkerboard MIC assay for FICI; format: cell-based, Candida tropicalis
Excerpt: as §1, §2, §3, §4, §5

C. krusei ATCC 32672 = test: Checkerboard MIC assay for FICI; format: cell-based, Candida krusei
Excerpt: as §1, §2, §3, §4, §5

C. glabrata ATCC 200918 = test: Checkerboard MIC assay for FICI; format: cell-based, Candida glabrata
Excerpt: as §1, §2, §3, §4, §5

C. neoformans ATCC 56991 = test: Checkerboard MIC assay for FICI; format: cell-based, Cryptococcus neoformans
Excerpt: as §1
(§6) Using a checkerboard method, a 2-fold dilution 100× final concentration master plate was prepared using a 96-well U-shape microtiter plate and an appropriate solvent. In the “checkerboard” method, a microtiter plate is divided into “columns” in which each well in the column contains the same amount of an antifungal agent (Compound A) being diluted along the x-axis, and “rows” in which each well in the row contains the same amount of a glycopeptide antibacterial agent (Compound B) being diluted on the γ-axis. Also included is a row (or column) for Compound A or B alone. The dilutions used in the checkerboard are exponential (by powers of two). […]

A. fumigatus ATCC 14110 = test: Checkerboard MIC assay for FICI; format: cell-based, Aspergillus fumigatus; conditions: combination with caspofungin
Excerpt: as §1, §6

A. terreus ATCC 46941 = test: Checkerboard MIC assay for FICI; format: cell-based; conditions: combination with caspofungin
Excerpt: as §1, §6

[2] = test system: S. prolificans ATCC 200543; test: Checkerboard MIC assay for FICI; format: cell-based; conditions: combination with caspofungin
Excerpt: as §1, §6

A. flavus ATCC 64025 = test: Checkerboard MIC assay for FICI; format: cell-based, Aspergillus flavus; conditions: combination with caspofungin
Excerpt: as §1, §6

[3] = test system: F. moniliforme ATCC 38159; test: Checkerboard MIC assay for FICI; format: cell-based, Fusarium moniliforme; conditions: combination with caspofungin
Excerpt: as §1, §6

P. boydii ATCC 38283 = test: Checkerboard MIC assay for FICI; format: cell-based, Pseudallescheria boydii; conditions: combination with caspofungin
Excerpt: as §1, §6

G. candidum ATCC 62231 = test: Checkerboard MIC assay for FICI; format: cell-based, Geotricium candidum; conditions: combination with caspofungin
Excerpt: as §1, §6

[4] = test system: M. circinelloides ATCC 26759; test: Checkerboard MIC assay for FICI; format: cell-based, Mucor circinelloides; conditions: combination with caspofungin
Excerpt: as §1, §6

[5] = test system: R. miscrosporus ATCC 14050; test: Checkerboard MIC assay for FICI; format: cell-based, Rhizopus microsporus; conditions: combination with caspofungin
Excerpt: as §1, §6

various strains of fungi = test: Assay for determining MIC and FICI, summary statements over strains; format: cell-based
Excerpt: as §1
FICI values are typically evaluated using the following criteria:
Using a checkerboard method, a 2-fold dilution 100× final concentration master plate was prepared using a 96-well U-shape microtiter plate and an appropriate solvent. In the “checkerboard” method, a microtiter plate is divided into “columns” in which each well in the column contains the same amount of an antifungal agent (Compound A) being diluted along the x-axis, and “rows” in which each well in the row contains the same amount of a glycopeptide antibacterial agent (Compound B) being diluted on the γ-axis. […]
The calculated value for the FICI of the combined test compounds was compared to the following standards in certain embodiments: […]

CCCCCCCCCCNCCN[C@@]1(C)C[C@H](O[C@H]2[C@H](Oc3c4cc5cc3Oc3ccc(cc3Cl)[C@@H](O)[C@@H](NC(=O)[C@@H](CC(C)C)NC)C(=O)N[C@@H](CC(N)=O)C(=O)N[C@H]5C(=O)N[C@H]3C(=O)N[C@H](C(=O)N[C@H](C(=O)O)c5cc(O)c(CNCP(=O)(O)O)c(O)c5-c5cc3ccc5O)[C@H](O)c3ccc(c(Cl)c3)O4)O[C@H](CO)[C@@H](O)[C@@H]2O)O[C@@H](C)[C@H]1O [Compound 1, telavancin]
FICI (C. albicans ATCC 24433; combination with caspofungin): 0.27
FICI ([1]; combination with caspofungin): 0.38
FICI (C. tropicalis ATCC 750; combination with caspofungin): 0.26
FICI (C. krusei ATCC 32672; combination with caspofungin): 0.31
FICI (C. glabrata ATCC 200918; combination with caspofungin): 0.28
FICI (C. neoformans ATCC 56991; combination with caspofungin, C. neoformans ATCC 56991, checkerboard): 0.75
FICI (A. fumigatus ATCC 14110): 0.28
FICI (A. terreus ATCC 46941): 0.31
FICI [2]: 1.25
FICI (A. flavus ATCC 64025): 0.16
FICI [3]: 2
FICI (P. boydii ATCC 38283): 0.31
FICI (G. candidum ATCC 62231): 0.31
FICI [4]: 2
FICI [5]: 2
effect of the combination with caspofungin (various strains of fungi; all yeast strains tested, except C. neoformans, FICI ≦ 0.5 = synergistic): synergistic

OC(Cn1cncn1)(Cn1cncn1)c1ccc(F)cc1F [Fluconazole]
FICI (C. albicans ATCC 24433; combination with Compound 1): 2.00
FICI ([1]; combination with Compound 1): 2.00
FICI (C. tropicalis ATCC 750; combination with Compound 1): 2.00
FICI (C. krusei ATCC 32672; combination with Compound 1): 2.00
FICI (C. glabrata ATCC 200918; combination with Compound 1): 2.00

Clc1ccc(COC(Cn2ccnc2)c2ccc(Cl)cc2Cl)c(Cl)c1 (stereo not drawn) [Miconazole]
FICI (C. albicans ATCC 24433; combination with Compound 1): 2.00
FICI ([1]; combination with Compound 1): 2.00
FICI (C. tropicalis ATCC 750; combination with Compound 1): 2.00

CN[C@H](CC(C)C)C(=O)N[C@H]1C(=O)N[C@@H](CC(N)=O)C(=O)N[C@H]2C(=O)N[C@H]3C(=O)N[C@H](C(=O)N[C@H](C(=O)O)c4cc(O)cc(O)c4-c4cc3ccc4O)[C@H](O)c3ccc(c(Cl)c3)Oc3cc2cc(c3O[C@@H]2O[C@H](CO)[C@@H](O)[C@H](O)[C@H]2O[C@H]2C[C@](C)(N)[C@H](O)[C@H](C)O2)Oc2ccc(cc2Cl)[C@H]1O [Vancomycin]
FICI (C. albicans ATCC 24433; combination with caspofungin): 2.00
FICI ([1]; combination with caspofungin): 2.00
FICI (C. tropicalis ATCC 750; combination with caspofungin): 2.00
FICI (C. krusei ATCC 32672; combination with caspofungin): 2.00
FICI (C. glabrata ATCC 200918; combination with caspofungin): 2.00
effect of the combination with caspofungin (various strains of fungi; strains of Table 1, FICI criteria of b187): not synergistic or additive

C[C@@H](c1ncncc1F)[C@](O)(Cn1cncn1)c1ccc(F)cc1F [Voriconazole, voriconazole]
FICI (C. krusei ATCC 32672; combination with Compound 1): 1.13
FICI (C. glabrata ATCC 200918; combination with Compound 1): 1.13

CC[C@H](C)C[C@H](C)CCCCCCCCC(=O)N[C@H]1C[C@@H](O)[C@@H](NCCN)NC(=O)[C@@H]2[C@@H](O)CCN2C(=O)[C@H]([C@H](O)CCN)NC(=O)[C@H]([C@H](O)[C@@H](O)c2ccc(O)cc2)NC(=O)[C@@H]2C[C@@H](O)CN2C(=O)[C@H]([C@@H](C)O)NC1=O [caspofungin]
activity of caspofungin against C. neoformans (C. neoformans ATCC 56991; caspofungin alone): no activity
